Assay results: PMC11345841, “Exploring 2-Sulfonylpyrimidine Warheads as Acrylamide Surrogates for Targeted Covalent Inhibition: A BTK Story” (Journal of Medicinal Chemistry, 2024)
Like-named read-outs stand apart in the source and are kept apart here.

How the values were obtained:
[1] = tested on: full-length wild-type BTK; assay: Intact protein mass spectrometry, covalent modification; type: binding; conditions: 2:1 ratio of compound to protein (40 μM/20 μM), 23 °C
Procedure: The proteins were injected into the sample loop and desalted for 3 min at 100 μL/min using water (0.1% formic acid) on an in-house packed POROS 20R-2 trap. Proteins were eluted into the mass spectrometer using a 15–70% ACN (0.1% formic acid) gradient in 10 min at a flow rate of 100 μL/min. Mass spectra were acquired using a Waters Synapt HDMSE mass spectrometer operated in TOF-only mode with a standard electrospray source, capillary voltage of 3200 V, and a cone voltage of 40 V with a mass range of 50–2000 m/z. Intact mass values for both free and labeled wild-type BTK were calculated from the raw m/z spectra using MaxEnt1 within MassLynx 4.1 (Waters) with a resolution of 0.05 Da and an output mass range of 65,000–85 000 Da.

[2] = target: T1, ABL1(F317I)-phosphorylated (Homo sapiens, UniProt P00519, F317I); assay: KINOMEscan ScanTK; type: binding
T1 construct: purchased Eurofins DiscoverX KINOMEscan (scanTK)
T1 sequence (P00519 whole entry F317I): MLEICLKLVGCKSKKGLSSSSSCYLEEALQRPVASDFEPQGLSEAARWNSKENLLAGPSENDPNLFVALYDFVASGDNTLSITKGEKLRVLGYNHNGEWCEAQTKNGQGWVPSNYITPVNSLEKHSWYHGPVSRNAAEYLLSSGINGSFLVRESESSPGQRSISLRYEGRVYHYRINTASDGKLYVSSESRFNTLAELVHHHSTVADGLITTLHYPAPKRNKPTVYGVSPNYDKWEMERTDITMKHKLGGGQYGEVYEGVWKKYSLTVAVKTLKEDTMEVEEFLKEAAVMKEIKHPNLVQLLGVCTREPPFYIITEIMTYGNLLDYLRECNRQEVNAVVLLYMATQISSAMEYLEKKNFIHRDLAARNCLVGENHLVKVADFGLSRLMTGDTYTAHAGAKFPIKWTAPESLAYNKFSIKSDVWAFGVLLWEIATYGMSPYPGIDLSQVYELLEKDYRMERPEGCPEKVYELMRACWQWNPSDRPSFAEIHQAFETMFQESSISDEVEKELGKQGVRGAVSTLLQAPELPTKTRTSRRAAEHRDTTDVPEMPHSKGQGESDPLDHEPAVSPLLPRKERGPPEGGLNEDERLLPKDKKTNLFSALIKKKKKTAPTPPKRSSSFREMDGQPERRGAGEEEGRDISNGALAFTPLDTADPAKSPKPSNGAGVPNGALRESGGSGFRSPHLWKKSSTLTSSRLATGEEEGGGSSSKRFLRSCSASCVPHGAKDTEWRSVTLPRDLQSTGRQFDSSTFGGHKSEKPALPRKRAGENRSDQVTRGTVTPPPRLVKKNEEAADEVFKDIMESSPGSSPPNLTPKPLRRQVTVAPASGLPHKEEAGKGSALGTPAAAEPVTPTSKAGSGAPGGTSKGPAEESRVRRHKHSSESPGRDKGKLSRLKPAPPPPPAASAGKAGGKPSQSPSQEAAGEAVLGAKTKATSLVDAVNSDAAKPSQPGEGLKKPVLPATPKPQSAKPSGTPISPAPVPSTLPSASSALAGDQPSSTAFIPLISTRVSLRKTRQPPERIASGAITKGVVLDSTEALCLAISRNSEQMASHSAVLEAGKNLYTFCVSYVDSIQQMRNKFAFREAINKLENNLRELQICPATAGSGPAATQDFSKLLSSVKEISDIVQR

BRK = target: T2, BRK (Homo sapiens, UniProt Q13882); assay: KINOMEscan ScanTK; type: binding
T2 construct: purchased Eurofins DiscoverX KINOMEscan (scanTK)
T2 sequence (Q13882 whole entry): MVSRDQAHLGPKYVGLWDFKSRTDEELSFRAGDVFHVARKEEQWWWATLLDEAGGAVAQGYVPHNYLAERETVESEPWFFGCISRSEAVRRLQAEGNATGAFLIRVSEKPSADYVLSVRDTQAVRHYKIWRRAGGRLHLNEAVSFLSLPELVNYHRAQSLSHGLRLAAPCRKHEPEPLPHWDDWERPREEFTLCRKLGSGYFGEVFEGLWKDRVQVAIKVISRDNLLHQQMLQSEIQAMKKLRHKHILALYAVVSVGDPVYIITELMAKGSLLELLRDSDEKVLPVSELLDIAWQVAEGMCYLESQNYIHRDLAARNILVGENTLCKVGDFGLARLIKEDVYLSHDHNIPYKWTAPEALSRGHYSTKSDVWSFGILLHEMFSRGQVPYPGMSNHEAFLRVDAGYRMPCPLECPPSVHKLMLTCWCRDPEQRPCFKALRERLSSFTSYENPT

EPHB1 = target: T3, EPHB1 (Homo sapiens, UniProt P54762); assay: KINOMEscan ScanTK; type: binding
T3 construct: purchased Eurofins DiscoverX KINOMEscan (scanTK)
T3 sequence (P54762 18-984): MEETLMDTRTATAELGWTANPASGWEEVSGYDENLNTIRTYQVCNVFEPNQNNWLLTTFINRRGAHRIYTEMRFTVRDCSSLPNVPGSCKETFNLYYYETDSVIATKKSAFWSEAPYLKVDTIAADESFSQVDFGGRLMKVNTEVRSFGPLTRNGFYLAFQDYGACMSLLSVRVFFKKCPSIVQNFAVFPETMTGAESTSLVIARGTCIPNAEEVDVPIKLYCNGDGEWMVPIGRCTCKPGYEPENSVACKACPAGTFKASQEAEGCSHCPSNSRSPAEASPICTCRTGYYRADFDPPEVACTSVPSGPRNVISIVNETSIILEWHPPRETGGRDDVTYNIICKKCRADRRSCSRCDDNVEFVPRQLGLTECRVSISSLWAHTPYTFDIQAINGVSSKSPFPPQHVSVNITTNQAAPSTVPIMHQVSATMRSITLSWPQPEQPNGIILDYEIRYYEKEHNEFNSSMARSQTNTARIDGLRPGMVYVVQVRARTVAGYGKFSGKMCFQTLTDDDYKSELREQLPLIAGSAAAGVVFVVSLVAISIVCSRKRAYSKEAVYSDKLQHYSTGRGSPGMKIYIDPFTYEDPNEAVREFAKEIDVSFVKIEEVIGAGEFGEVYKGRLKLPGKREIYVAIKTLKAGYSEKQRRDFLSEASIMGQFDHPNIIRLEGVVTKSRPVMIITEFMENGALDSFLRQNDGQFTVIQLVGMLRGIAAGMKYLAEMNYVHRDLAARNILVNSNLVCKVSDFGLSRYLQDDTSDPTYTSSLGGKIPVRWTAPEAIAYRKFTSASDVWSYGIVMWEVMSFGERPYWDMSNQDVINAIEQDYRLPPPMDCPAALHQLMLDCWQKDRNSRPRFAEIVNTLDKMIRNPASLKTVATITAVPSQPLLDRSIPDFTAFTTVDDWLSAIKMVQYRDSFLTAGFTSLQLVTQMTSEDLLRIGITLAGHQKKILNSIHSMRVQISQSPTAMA

FLT3(ITD,D835V) = assay: KINOMEscan ScanTK; type: binding; conditions: for %Control / % difference (compound - Ib %Control): @1000nM
TRKC = target: T4, TRKC (Homo sapiens, UniProt Q16288); assay: KINOMEscan ScanTK; type: binding
T4 construct: purchased Eurofins DiscoverX KINOMEscan (scanTK)
T4 sequence (Q16288 32-839): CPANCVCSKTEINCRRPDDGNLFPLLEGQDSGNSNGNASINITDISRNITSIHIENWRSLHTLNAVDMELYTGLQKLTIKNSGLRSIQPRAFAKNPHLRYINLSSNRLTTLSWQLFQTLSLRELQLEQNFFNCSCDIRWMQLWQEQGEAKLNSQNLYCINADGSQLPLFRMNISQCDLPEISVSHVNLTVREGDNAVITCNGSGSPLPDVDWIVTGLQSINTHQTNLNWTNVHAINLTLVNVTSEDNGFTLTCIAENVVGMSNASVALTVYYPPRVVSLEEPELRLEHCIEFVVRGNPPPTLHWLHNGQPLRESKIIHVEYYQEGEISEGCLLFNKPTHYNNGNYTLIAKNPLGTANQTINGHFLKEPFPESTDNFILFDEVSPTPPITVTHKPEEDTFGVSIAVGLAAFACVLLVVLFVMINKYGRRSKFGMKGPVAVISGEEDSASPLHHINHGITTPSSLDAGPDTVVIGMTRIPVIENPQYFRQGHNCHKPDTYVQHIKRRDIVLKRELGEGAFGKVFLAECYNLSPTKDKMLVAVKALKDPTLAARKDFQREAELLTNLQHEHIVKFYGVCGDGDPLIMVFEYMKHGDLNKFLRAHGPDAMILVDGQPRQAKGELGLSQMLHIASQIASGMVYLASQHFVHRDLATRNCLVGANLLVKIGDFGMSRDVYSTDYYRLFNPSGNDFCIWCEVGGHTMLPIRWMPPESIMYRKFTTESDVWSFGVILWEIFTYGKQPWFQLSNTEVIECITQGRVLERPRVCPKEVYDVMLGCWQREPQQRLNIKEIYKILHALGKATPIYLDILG

TYRO3 = target: T5, TYRO3 (Homo sapiens, UniProt Q06418); assay: KINOMEscan ScanTK; type: binding
T5 construct: purchased Eurofins DiscoverX KINOMEscan (scanTK)
T5 sequence (Q06418 41-890): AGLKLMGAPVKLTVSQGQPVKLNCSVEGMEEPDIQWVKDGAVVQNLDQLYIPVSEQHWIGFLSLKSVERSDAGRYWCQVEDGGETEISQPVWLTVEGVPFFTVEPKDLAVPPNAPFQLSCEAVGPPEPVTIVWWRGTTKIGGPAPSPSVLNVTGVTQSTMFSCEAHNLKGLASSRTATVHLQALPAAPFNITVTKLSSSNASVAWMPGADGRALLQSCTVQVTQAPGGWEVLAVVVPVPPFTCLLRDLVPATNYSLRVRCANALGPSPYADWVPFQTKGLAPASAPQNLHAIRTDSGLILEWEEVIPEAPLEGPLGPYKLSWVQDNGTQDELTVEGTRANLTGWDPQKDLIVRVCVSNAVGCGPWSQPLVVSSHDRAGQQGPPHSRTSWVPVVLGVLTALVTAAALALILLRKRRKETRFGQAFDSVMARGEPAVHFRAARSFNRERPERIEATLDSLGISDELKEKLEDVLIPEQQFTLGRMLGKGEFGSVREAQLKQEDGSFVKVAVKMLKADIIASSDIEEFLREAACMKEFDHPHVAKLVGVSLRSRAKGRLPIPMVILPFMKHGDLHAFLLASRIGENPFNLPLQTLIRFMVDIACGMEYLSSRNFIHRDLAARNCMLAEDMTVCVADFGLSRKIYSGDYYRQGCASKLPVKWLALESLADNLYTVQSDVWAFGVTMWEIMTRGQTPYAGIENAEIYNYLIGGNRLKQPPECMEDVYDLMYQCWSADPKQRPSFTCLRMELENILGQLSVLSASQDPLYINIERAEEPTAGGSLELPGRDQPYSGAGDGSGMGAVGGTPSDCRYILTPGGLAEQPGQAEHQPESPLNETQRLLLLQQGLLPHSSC

OCI-LY7 cells = assay: Anti-IgM-induced Ca2+ flux assay; type: cell-based, human; conditions: 1 h pretreatment, 1000 nM or lower concentrations
Procedure: The effects of compounds on Ca^2+ release were then analyzed following treatment of OCI-LY7 cells (derived from a diffuse large B-cell lymphoma (DLBCL)) with anti-IgM to cross-link surface IgM (sIgM). […] For 8a and 8d, we performed similar experiments at lower concentrations.
Flow cytometry was performed using a FACS Canto II system (BD Biosciences). Data was acquired for 30 s before cells were stimulated with goat antihuman F(ab’)2 anti-IgM and data were acquired for a further 3.5 min. Cells were then treated with ionomycin (1 μM; Merck) and data were acquired for 2 min. Calcium responses were quantified by calculating area under the curve (AUC) in FlowJo (Becton Dickinson) from the point of addition of anti-IgM to the addition of ionomycin.

RET(V804L) = target: T6, RET(V804L) (Homo sapiens, UniProt P07949, V804L); assay: KINOMEscan ScanTK; type: binding
T6 construct: purchased Eurofins DiscoverX KINOMEscan (scanTK)
T6 sequence (P07949 29-1114 V804L): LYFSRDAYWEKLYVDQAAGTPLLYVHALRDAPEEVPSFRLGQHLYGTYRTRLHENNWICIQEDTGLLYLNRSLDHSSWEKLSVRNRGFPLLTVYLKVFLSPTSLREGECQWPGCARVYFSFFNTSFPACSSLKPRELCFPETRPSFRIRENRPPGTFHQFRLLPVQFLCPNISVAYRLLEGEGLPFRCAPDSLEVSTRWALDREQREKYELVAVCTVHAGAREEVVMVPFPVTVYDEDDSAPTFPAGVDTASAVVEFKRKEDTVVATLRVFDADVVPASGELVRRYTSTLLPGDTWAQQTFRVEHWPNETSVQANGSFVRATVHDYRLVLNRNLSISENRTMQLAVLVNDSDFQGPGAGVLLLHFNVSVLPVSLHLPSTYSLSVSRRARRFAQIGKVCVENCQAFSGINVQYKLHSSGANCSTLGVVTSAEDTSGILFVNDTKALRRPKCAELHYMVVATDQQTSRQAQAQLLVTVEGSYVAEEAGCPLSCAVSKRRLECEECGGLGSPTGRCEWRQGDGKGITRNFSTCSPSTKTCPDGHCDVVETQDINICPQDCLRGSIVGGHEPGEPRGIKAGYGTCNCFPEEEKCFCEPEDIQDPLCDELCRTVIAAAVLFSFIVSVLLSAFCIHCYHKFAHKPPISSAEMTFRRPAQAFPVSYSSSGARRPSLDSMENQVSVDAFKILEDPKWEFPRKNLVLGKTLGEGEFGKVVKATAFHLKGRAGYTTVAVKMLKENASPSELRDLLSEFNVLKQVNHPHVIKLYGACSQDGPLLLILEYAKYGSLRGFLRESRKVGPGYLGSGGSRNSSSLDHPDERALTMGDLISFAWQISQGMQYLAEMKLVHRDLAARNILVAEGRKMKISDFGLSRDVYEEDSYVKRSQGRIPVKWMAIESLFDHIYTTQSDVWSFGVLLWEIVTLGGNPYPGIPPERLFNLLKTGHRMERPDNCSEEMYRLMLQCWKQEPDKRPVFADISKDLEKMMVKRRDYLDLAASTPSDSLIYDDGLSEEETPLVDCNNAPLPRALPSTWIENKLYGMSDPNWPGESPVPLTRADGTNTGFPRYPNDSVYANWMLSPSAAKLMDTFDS

TNK2 = target: T7, TNK2 (Homo sapiens, UniProt Q07912); assay: KINOMEscan ScanTK; type: binding
T7 construct: purchased Eurofins DiscoverX KINOMEscan (scanTK)
T7 sequence (Q07912 whole entry): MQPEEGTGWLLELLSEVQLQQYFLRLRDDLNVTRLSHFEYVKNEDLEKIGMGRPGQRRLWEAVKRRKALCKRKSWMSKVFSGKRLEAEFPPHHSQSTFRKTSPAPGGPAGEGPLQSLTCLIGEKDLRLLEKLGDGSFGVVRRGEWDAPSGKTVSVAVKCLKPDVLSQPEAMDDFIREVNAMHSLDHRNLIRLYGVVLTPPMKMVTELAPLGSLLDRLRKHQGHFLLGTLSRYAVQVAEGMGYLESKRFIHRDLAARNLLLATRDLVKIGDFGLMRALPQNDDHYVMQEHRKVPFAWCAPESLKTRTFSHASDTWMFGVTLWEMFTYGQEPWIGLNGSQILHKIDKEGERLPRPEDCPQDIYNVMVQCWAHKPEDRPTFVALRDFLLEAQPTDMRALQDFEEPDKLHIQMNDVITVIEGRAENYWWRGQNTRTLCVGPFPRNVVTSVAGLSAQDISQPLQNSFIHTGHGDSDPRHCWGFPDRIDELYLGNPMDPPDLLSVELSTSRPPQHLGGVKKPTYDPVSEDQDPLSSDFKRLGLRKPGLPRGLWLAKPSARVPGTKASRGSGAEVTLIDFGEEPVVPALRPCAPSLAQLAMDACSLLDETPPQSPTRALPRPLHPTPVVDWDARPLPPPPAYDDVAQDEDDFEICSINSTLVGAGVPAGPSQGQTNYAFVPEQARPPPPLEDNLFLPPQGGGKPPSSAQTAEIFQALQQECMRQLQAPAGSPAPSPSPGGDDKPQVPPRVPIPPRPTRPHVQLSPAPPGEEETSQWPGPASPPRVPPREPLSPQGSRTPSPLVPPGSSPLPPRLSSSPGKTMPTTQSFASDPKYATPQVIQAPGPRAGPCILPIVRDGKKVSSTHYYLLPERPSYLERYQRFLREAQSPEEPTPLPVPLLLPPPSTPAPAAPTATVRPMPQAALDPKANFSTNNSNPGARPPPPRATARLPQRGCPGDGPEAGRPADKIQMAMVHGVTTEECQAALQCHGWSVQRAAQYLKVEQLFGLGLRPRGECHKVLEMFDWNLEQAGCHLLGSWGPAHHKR

Plasma stability assay = type: in vitro ADME; conditions: 3 h incubation at 37 °C; 50% human plasma; 1 μM compound
[3] = @1000nM, EPHB1, read-out: %Control
[4] = EPHB1, read-out: %Control @1000nM
[5] = @1000nM, TRKC, read-out: %Control
[6] = TRKC, read-out: %Control @1000nM

Compound: C=CC(=O)N1CCC[C@@H](n2nc(-c3ccc(Oc4ccccc4)cc3)c3c(N)ncnc32)C1 [Compound 1g, Ibrutinib, reference compound]
- covalent modification of full-length WT BTK (intact mass) [1]: modified full-length BTK
- remaining binding at 1 µM ([2]; @1000nM, read-out: %Control): 73%
- remaining binding at 1 µM ([2]; read-out: %Control @1000nM): 73%
- remaining binding at 1 µM (BRK; @1000nM, read-out: %Control): 1.3%
- remaining binding at 1 µM (BRK; read-out: %Control @1000nM): 1.3%
- remaining binding at 1 µM (EPHB1; read-out: %Control): 90%
- remaining binding at 1 µM (EPHB1; read-out: %Control @1000nM): 90%
- %Control @1000nM (FLT3(ITD,D835V)): 77%
- %Control (FLT3(ITD,D835V)): 77%
- remaining binding at 1 µM (TRKC; read-out: %Control): 95%
- remaining binding at 1 µM (TRKC; read-out: %Control @1000nM): 95%
- remaining binding at 1 µM (TYRO3; @1000nM, read-out: %Control): 34%
- remaining binding at 1 µM (TYRO3; read-out: %Control @1000nM): 34%

Compound: Cc1cnc(S(C)(=O)=O)nc1N1CCCC(n2nc(-c3ccc(Oc4ccccc4)cc3)c3c(N)ncnc32)C1 (stereo not shown) [Compound 8a, 1-(1-(5-Methyl-2-(methylsulfonyl)pyrimidin-4-yl)piperidin-3-yl)-3-(4-phenoxyphenyl)-1H-pyrazolo[3,4-d]pyrimidin-4-amine]
- effect on anti-IgM-induced Ca2+ flux (OCI-LY7 cells): maintained for these compounds at concentrations down to 250 nM
- difference in %Control from reference compound Ib at 1 µM ([2]; @1000nM): 17%
- remaining binding at 1 µM ([2]; @1000nM, read-out: %Control): 90%
- remaining binding at 1 µM ([2]; read-out: %Control @1000nM): 90%
- difference in %Control relative to compound Ib at 1 µM (BRK; @1000nM): 13.7%
- remaining binding at 1 µM (BRK; @1000nM, read-out: %Control): 15%
- remaining binding at 1 µM (BRK; read-out: %Control @1000nM): 15%
- difference in % of control versus compound Ib at 1 µM (EPHB1; @1000nM, EPHB1): 3%
- remaining binding at 1 µM (EPHB1; [3]): 93%
- remaining binding at 1 µM (EPHB1; [4]): 93%
- %Control @1000nM (FLT3(ITD,D835V)): 78%
- % difference (compound - Ib %Control) (FLT3(ITD,D835V)): 1%
- %Control (FLT3(ITD,D835V)): 78%
- remaining binding at 1 µM (RET(V804L); @1000nM, read-out: %Control): 89%
- remaining binding at 1 µM (RET(V804L); read-out: %Control @1000nM): 89%
- remaining binding at 1 µM (TNK2; @1000nM, read-out: %Control): 96%
- remaining binding at 1 µM (TNK2; read-out: %Control @1000nM): 96%
- difference in %Control versus compound Ib at 1 µM (TRKC; @1000nM, TRKC): -17%
- remaining binding at 1 µM (TRKC; [5]): 78%
- remaining binding at 1 µM (TRKC; [6]): 78%
- remaining binding at 1 µM (TYRO3; @1000nM, read-out: %Control): 40%
- remaining binding at 1 µM (TYRO3; read-out: %Control @1000nM): 40%

Compound: COC(=O)c1cnc(S(C)(=O)=O)nc1N1CCCC(n2nc(-c3ccc(Oc4ccccc4)cc3)c3c(N)ncnc32)C1 (stereo not shown) [Compound 8b, Methyl 4-(3-(4-Amino-3-(4-phenoxyphenyl)-1H-pyrazolo[3,4-d]pyrimidin-1-yl)piperidin-1-yl)-2-(methylsulfonyl)pyrimidine-5-carboxylate]
- % compound remaining, human plasma stability (Plasma stability assay): 20–50%
- difference in %Control from reference compound Ib at 1 µM ([2]; @1000nM): 6%
- remaining binding at 1 µM ([2]; @1000nM, read-out: %Control): 79%
- remaining binding at 1 µM ([2]; read-out: %Control @1000nM): 79%
- difference in %Control relative to compound Ib at 1 µM (BRK; @1000nM): 40.7%
- remaining binding at 1 µM (BRK; @1000nM, read-out: %Control): 42%
- remaining binding at 1 µM (BRK; read-out: %Control @1000nM): 42%
- difference in % of control versus compound Ib at 1 µM (EPHB1; @1000nM, EPHB1): -2%
- remaining binding at 1 µM (EPHB1; [3]): 88%
- remaining binding at 1 µM (EPHB1; [4]): 88%
- %Control @1000nM (FLT3(ITD,D835V)): 93%
- % difference (compound - Ib %Control) (FLT3(ITD,D835V)): 16%
- %Control (FLT3(ITD,D835V)): 93%
- remaining binding at 1 µM (RET(V804L); @1000nM, read-out: %Control): 90%
- remaining binding at 1 µM (RET(V804L); read-out: %Control @1000nM): 90%
- remaining binding at 1 µM (TNK2; @1000nM, read-out: %Control): 100%
- remaining binding at 1 µM (TNK2; read-out: %Control @1000nM): 100%
- difference in %Control versus compound Ib at 1 µM (TRKC; @1000nM, TRKC): -17%
- remaining binding at 1 µM (TRKC; [5]): 78%
- remaining binding at 1 µM (TRKC; [6]): 78%
- remaining binding at 1 µM (TYRO3; @1000nM, read-out: %Control): 33%
- remaining binding at 1 µM (TYRO3; read-out: %Control @1000nM): 33%

Compound: CCOC(=O)c1cnc(S(C)(=O)=O)nc1N1CCC[C@@H](n2nc(-c3ccc(Oc4ccccc4)cc3)c3c(N)ncnc32)C1 [Compound 8c, Ethyl (R)-4-(3-(4-Amino-3-(4-phenoxyphenyl)-1H-pyrazolo[3,4-d]pyrimidin-1-yl)piperidin-1-yl)-2-(methylsulfonyl)pyrimidine-5-carboxylate]
- % compound remaining, human plasma stability (Plasma stability assay): 20–50%
- difference in %Control from reference compound Ib at 1 µM ([2]; @1000nM): 15%
- remaining binding at 1 µM ([2]; @1000nM, read-out: %Control): 88%
- remaining binding at 1 µM ([2]; read-out: %Control @1000nM): 88%
- difference in %Control relative to compound Ib at 1 µM (BRK; @1000nM): 52.7%
- remaining binding at 1 µM (BRK; @1000nM, read-out: %Control): 54%
- remaining binding at 1 µM (BRK; read-out: %Control @1000nM): 54%
- difference in % of control versus compound Ib at 1 µM (EPHB1; @1000nM, EPHB1): 1%
- remaining binding at 1 µM (EPHB1; [3]): 91%
- remaining binding at 1 µM (EPHB1; [4]): 91%
- %Control @1000nM (FLT3(ITD,D835V)): 69%
- % difference (compound - Ib %Control) (FLT3(ITD,D835V)): -8%
- %Control (FLT3(ITD,D835V)): 69%
- remaining binding at 1 µM (RET(V804L); @1000nM, read-out: %Control): 100%
- remaining binding at 1 µM (RET(V804L); read-out: %Control @1000nM): 100%
- remaining binding at 1 µM (TNK2; @1000nM, read-out: %Control): 94%
- remaining binding at 1 µM (TNK2; read-out: %Control @1000nM): 94%
- difference in %Control versus compound Ib at 1 µM (TRKC; @1000nM, TRKC): -18%
- remaining binding at 1 µM (TRKC; [5]): 77%
- remaining binding at 1 µM (TRKC; [6]): 77%
- remaining binding at 1 µM (TYRO3; @1000nM, read-out: %Control): 40%
- remaining binding at 1 µM (TYRO3; read-out: %Control @1000nM): 40%
